# Results: US20240307353A1, “JAK1 PATHWAY INHIBITORS FOR THE TREATMENT OF ASTHMA” (Incyte Corporation, priority 2023, published 2024)
# Key:
# [1] = test system: HDM-induced severe asthma model; assay: House dust mite (HDM)-induced severe asthma model, lung mechanics after methacholine challenge; type: in vivo, female BALB/c mice
# Protocol: (§1) In vivo studies were conducted to test Compound 1 in two models of severe asthma. The first study conducted included an experimental house dust mite (HDM)-induced severe asthma model representative of both Th2/eosinophilic and Th1/Th17/neutrophilic asthma endotypes. The second study conducted included an ovalbumin (OVA) model of acute asthma which more closely represents a Th2/eosinophilic asthma endotype. For each model, fifty-eight female BALB/c mice were randomly and prospectively assigned to six groups, one group of six, one group of twelve, and four groups of ten animals each (see Table 3).
# HDM model: On Day 0, animals in Groups 2-6 were sensitized with 50 μg of HDM in an emulsion with 150 μg of complete Freund's adjuvant (CFA) in a 100 μL volume by subcutaneous injection (SC). Animals in Groups 2-6 were challenged on Day 14 with 50 μg HDM in 40 μL saline via intra-nasal instillation (IN). Group 1 served as the naïve control group. On Days 12, 13, 14, and 15, animals in Groups 2-6 were dosed according to Table 3. […] On Day 16, animals underwent methacholine challenge with lung mechanics measurements using a flexi Vent mechanical ventilator.
# (§2) . Elasticity of the lung (H) shown in FIGS. 6A-B and airway resistance in small airways and alveoli (G) shown in FIGS. 7A-B were measured using a flexiVent mechanical ventilator following challenge with 25 mg/mL methacholine. Group numbers represent the following treatments: 1) naïve; 2) diseased, vehicle treated; 3) diseased, Compound 1 (1 mg/kg); […]; and 6) diseased, positive control. Data are presented as mean±SEM. n=6-12 per group. Statistical significance between groups was determined by one-way ANOVA with Dunnett's multiple comparisons test used to compare all groups to the vehicle-control group. (*:p<0.05; **:p≤0.01).
# [2] = test system: cytokine production in whole blood stimulated with Dynabeads Human T-Activator CD3/CD28; assay: Whole blood assay, plasma cytokines after CD3/CD28 stimulation (MSD multiplex); type: cell-based; conditions: 0.3 μM, 1 μM, 19 hours at 37° C., n=6
# Protocol: An in vitro study was conducted to investigate the impact of Compound 1 on eosinophil and neutrophil activation and cytokine production that play a role in contributing to eosinophilic and noneosinophilic (neutrophilic) asthma endotypes. Whole blood from healthy volunteers was unstimulated (Unstim) or stimulated with Dynabeads™ Human T-Activator CD3/CD28 in the absence (0) or presence (0.3 μM, 1 μM) of Compound 1 for a total of 19 hours at 37° C. Whole blood was analyzed for cell surface activation marker CD69 gated for eosinophils or neutrophils by flow cytometry (n=12). Plasma was isolated from the whole blood and analyzed for various cytokines using a MSD multiplex platform (n=6). […] Because Compound 1 inhibits the production of Th2/Th1/Th17 cytokines and reduces activation of eosinophils and neutrophils Compound 1 provides an endotype-agnostic means to treat severe asthma.
# FIGS. 2-4 depict the effect of Compound 1 on cytokine levels in a whole blood assay. Plasma was isolated from whole blood samples and analyzed for Th2 cytokines (FIGS. 2A-C: IL-4, IL-5, and IL-13 respectively); Th1/Th17 cytokines (FIGS. 3A-C: IFNγ, TNFα, and IL-22 respectively), and other inflammatory cytokines/chemokines (FIGS. 4A-B: CXCL10 and IL-6 respectively). Each symbol represents a different donor. Values from individual donors are shown, along with mean value for each treatment. Data was plotted in GraphPad PRISM v.9.3.1 and analyzed by a paired t test (*:p<0.05; **:p≤0.01; ***:p≤0.001).
# [3] = test system: OVA model of acute asthma; assay: Ovalbumin (OVA) model of acute asthma, lung mechanics after methacholine challenge; type: in vivo, female BALB/c mice
# Protocol: as §1
# OVA model: On Day 0 and Day 7, animals in Groups 2-6 were sensitized with 20 μg of OVA and 1.5 mg Alum in 100 μL volume by intraperitoneal injection (IP). Animals in Groups 2-6 were challenged on Day 13, 14, and 15 with 20 μg OVA in 50 μL PBS via intra-nasal instillation (IN). Group I served as the naïve control group. On Days 12, 13, 14, and 15, animals in Groups 2-6 were dosed according to Table 3. On Day 16, animals underwent methacholine challenge with lung mechanics measurements using a flexiVent mechanical ventilator.
# as §2
compound,measurement,setting,value
"Cc1n[nH]c(C)c1-c1cnn(C2(CC#N)CN(c3cc(F)c(C(=O)N[C@@H](C)C(F)(F)F)cc3F)C2)c1 [Compound 1, 4-[3-(cyanomethyl)-3-(3′,5′-dimethyl-1H,1′H-4,4′-bipyrazol-1-yl)azetidin-1-yl]-2,5-difluoro-N-[(1S)-2,2,2-trifluoro-1-methylethyl]benzamide]",elasticity of the lung (H),[1]; 25 mg/mL methacholine,decreases
same,resistance in small airways and alveoli (G),[1]; 25 mg/mL methacholine,decreases
same,"airway measures (Rrs, Ers, G, H), difference between groups","[1]; 10 and 30 mg/kg, Days 12-15, methacholine challenge Day 16",no significant differences
same,"Th1 and Th17/Th22 cytokines (IFNγ, TNFα, IL-22)",[2],reduced Th1 and Th17/Th22 cytokines induced by T-cell activation in a concentration-dependent manner
same,"inflammatory cytokines/chemokines (CXCL10, IL-6)",[2],reduced inflammatory cytokines/chemokines induced by T cell activation in a concentration-dependent manner
same,"levels of Th2 cytokines (IL-4, IL-5, IL-13)",[2],reduced the levels of Th2 cytokines induced by T-cell activation in a concentration-dependent manner
same,elasticity of the lung (H),[3]; 10 mg/kg dose,significant reduction
same,resistance in small airways and alveoli (G),[3]; 10 mg/kg dose,significant reduction
same,elasticity of the lung (H),[3]; 25 mg/mL methacholine,reversed the elevation
same,resistance in small airways and alveoli (G),[3]; 25 mg/mL methacholine,reversed the elevation
